# Assay results: PMC1175996, “Guanine-nucleotide exchange on ribosome-bound elongation factor G initiates the translocation of tRNAs” (Journal of Biology, 2005)
# Assays:
# [1] = target: T1, EF-G (free elongation factor G) (Escherichia coli, UniProt P0A6M8); assay: nitrocellulose filtration, Scatchard plot; type: binding
# T1 construct: gene fusA; purified EF-G, free in solution (no ribosome)
# [2] = target: T2, EF-G on 70S ribosome complexes (preT / postTerm) (Escherichia coli, UniProt P0A6M8); assay: translocation rate by RF2-dependent fMet-Ile release, EF-G recycling; type: biochemical; conditions: read-out: I50
# T2 construct: gene fusA
# T2 sequence (P0A6M8 2-704, one chain of several): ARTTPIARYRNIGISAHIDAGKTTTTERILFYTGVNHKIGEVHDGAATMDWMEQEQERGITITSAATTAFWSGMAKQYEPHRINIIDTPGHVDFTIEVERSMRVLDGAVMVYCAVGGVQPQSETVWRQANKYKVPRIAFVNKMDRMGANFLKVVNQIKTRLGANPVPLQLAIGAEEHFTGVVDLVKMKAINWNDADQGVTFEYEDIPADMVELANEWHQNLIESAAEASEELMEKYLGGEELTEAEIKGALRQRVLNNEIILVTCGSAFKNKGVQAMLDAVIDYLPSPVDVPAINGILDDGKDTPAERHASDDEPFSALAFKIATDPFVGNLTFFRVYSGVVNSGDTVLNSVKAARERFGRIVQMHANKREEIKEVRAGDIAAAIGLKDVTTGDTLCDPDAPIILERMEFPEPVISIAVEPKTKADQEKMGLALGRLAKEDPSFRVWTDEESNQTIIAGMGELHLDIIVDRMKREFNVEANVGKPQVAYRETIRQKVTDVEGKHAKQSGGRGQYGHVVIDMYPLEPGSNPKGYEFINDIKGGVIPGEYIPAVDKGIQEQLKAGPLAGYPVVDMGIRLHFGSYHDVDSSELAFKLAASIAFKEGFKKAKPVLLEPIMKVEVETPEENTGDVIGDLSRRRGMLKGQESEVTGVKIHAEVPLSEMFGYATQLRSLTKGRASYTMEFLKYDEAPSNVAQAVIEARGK
# [3] = target: T1, EF-G (free elongation factor G); assay: nitrocellulose filtration, chase of [3H]-GDP by purified unlabelled GTP; type: binding; conditions: read-out: KGTP
# [4] = target: T2, EF-G on 70S ribosome complexes (preT / postTerm); assay: nitrocellulose filtration of ribosome-bound EF-G•[3H]-GDPNP; type: binding; conditions: labelled compound; 2 μM EF-G; 92 nM postTerm or naked 70S ribosomes; 1 μM [3H]-GDPNP; 37°C
# T1 sequence (P0A6M8 2-704): as the sequence (P0A6M8 2-704, one chain of several) above
smiles,measurement,setting,value
Nc1nc2c(ncn2[C@@H]2O[C@H](COP(=O)(O)OP(=O)(O)O)[C@@H](O)[C@H]2O)c(=O)[nH]1 [GDP],Kd,[1],~9 µM
same,IC50,[2],250 µM
Nc1nc2c(ncn2[C@@H]2O[C@H](COP(=O)(O)OP(=O)(O)OP(=O)(O)O)[C@@H](O)[C@H]2O)c(=O)[nH]1 [GTP],Kd,[3],> 600 µM
Nc1nc2c(ncn2[C@@H]2O[C@H](COP(=O)(O)OP(=O)(O)NP(=O)(O)O)[C@@H](O)[C@H]2O)c(=O)[nH]1 [GDPNP],nitrocellulose filtration of ribosome-bound EF-G•[3H]-GDPNP,[4],"EF-G, bound to either type of ribosome, had much higher affinity for GDPNP than for GDP"
